We go through seven compounds from patent US20260049089A1, “KRAS INHIBITOR COMPOUND” (SHANGHAI APEIRON THERAPEUTICS COMPANY LIMITED, priority 2022, published 2026).

The subject of one data set is AsPC-1 cells. Nature of the data set: 3D cell proliferation assay (CellTiter-Glo 3D), AsPC-1. The class given is cell-based. To be noted: 5 days, read-out: 3D Proliferation Inhibition AsPC-1_IC50. In a few lines:
(§1)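 Cells grown with compound as 3D cultures in low-adsorption plates for 5 days at 37° C, 5% CO2. Viability read as ATP luminescence (CellTiter-Glo 3D), normalised to DMSO and medium-only controls; IC50 from non-linear fit of inhibition versus log concentration.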
In general terms: ATP-based viability assays read luminescence as a measure of living cells.

Another data set has as its system AGS cells. Nature of the data set: 3D cell proliferation assay (CellTiter-Glo 3D), AGS. The class given is cell-based. Particulars: 5 days, read-out: 3D Proliferation Inhibition AGS_IC50. In a few lines:
as §1

The target in data set [1] is KRAS G12D GCP protein (His-tag-KRAS G12D) (Homo sapiens (Human), UniProt P01116, G12D). Nature of the data set: AlphaLISA compound screening assay, KRAS-GCP protein format. Particulars: AlphaLISA with cRAF, read-out: GCP-format IC50 (nM)/ Binding assay. Background: Alpha assays give light when donor and acceptor beads are brought close together.
Chain of KRAS G12D GCP protein (His-tag-KRAS G12D) (P01116-2 other isoform, or with tags, fused parts or gaps G12D): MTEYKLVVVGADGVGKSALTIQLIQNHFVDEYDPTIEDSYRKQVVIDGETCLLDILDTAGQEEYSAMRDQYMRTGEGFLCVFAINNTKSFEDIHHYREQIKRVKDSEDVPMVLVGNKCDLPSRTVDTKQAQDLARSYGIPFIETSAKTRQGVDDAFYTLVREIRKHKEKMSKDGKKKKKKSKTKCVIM
The target in data set [2] is KRAS G12D GTP protein (His-tag-KRAS G12D) (Homo sapiens (Human), UniProt P01116, G12D). Nature of the data set: AlphaLISA compound screening assay, KRAS-GTP protein format. To be noted: AlphaLISA with cRAF, read-out: GTP-format IC50 (nM)/ Binding assay.
Chain of KRAS G12D GTP protein (His-tag-KRAS G12D) (P01116-2 other isoform, or with tags, fused parts or gaps G12D): as above
The next data set relates to pERK in AGS cells. Nature of the data set: ERK phosphorylation cell assay, AGS. The class given is cell-based. To be noted: 3 hours compound incubation, read-out: pERK AGS_IC50. In a few lines:
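AGS […] cells, seeded overnight, were treated with compound for 3 hours at 37° C. pERK was detected by in-cell immunofluorescence, with GAPDH as normalizer, using 800CW/680RD secondary antibodies. Mean relative p-ERK levels were fitted against log concentration, with DMSO as negative and 10 μM Reference as positive control.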

Another data set concerns pERK in AsPC-1 cells. Nature of the data set: ERK phosphorylation cell assay, AsPC-1. It counts as cell-based. To be noted: read-out: pERK AsPC-1_IC50.
Data set [3] deals with KRAS G12D GDP protein (His-tag-KRAS G12D) (Homo sapiens (Human), UniProt P01116, G12D). Nature of the data set: AlphaLISA compound screening assay, KRAS-GDP protein format. Particulars: AlphaLISA with SOS1, GTP, cRAF, read-out: GDP-format IC50 (nM)/ Binding assay. The protocol: • Buffer 1: Composition and final concentrations: 25 mM HEPES, pH 7.5; 10 mM MgCl2; 0.01% Triton X-100. • Buffer 2: Composition and final concentrations: 25 mM HEPES, pH 7.5; 10 mM MgCl2; 0.01% Triton X-100; 1 mM DTT.
Chain of KRAS G12D GDP protein (His-tag-KRAS G12D) (P01116-2 other isoform, or with tags, fused parts or gaps G12D): as above
• 4> Use the ECHO555 automated liquid handler to prepare compounds. Test concentrations: The maximum compound concentration is 10 μM or 1 μM, serially diluted 3-fold, with 10 concentrations tested. Each concentration is tested in duplicate, with 0.5% DMSO as the solvent. • 5> High Signal Control Group (High Control): 30 replicates with 0.5% DMSO. KRAS protein is included in the reaction, representing 0% inhibition • 6> Low Signal Control Group (Low Control): 30 replicates with 0.5% DMSO. KRAS protein is not involved in the reaction, representing 100% inhibition
d. KRAS-GDP Protein Assay Procedure • 6> Add 5 μL of KRAS solution prepared with Buffer 1 to each well of the high-signal control group and compound test wells. Add 5 μL of Buffer 1 to each well of the low-signal control group. […] Incubate at room temperature for 1 hour. • 10> Measure the signal values using an EnVision plate reader. […] Incubate at room temperature for 1 hour. • 10> Measure the signal values using an EnVision plate reader. […] Incubate at room temperature for 1 hour. • 10> Measure the signal values using an EnVision plate reader. […]

The conditions of data set [4]: the molecule shown is the open-chain precursor.
The mark [5] stands for this setting: Homo sapiens, ASPC1, AsPC-1 cells.

The structures appear in SMILES notation. Like-named read-outs stand apart in the source and are kept apart here. A value given as a limit tells only on which side of the number the result lay.

With `O=C1CCCCCc2c(F)ccc3cc(O)cc(c23)-c2c(cc3c(N4CC5CCC(C4)N5)nc(OC[C@@]45CCCN4C[C@H](F)C5)nc3c2F)N1` [Example 9B, 12-((1R,5S)-3,8-diazabicyclo[3.2.1]octan-3-yl)-3,16-difluoro-14-(((2R,7aS)-2-fluorotetrahydro-1H-pyrazin-7a(5H)-yl)methoxy)-18-hydroxy-5,6,7,8-tetrahydro-4H-naphtho[1′,8′:4,5,6][1]azacyclododecino[2,3-g]quinazolin-9(10H)-one], the IC50 is 222 nM in the data set on AsPC-1 cells; 93 nM with AGS cells; 58.5 nM in data set [1]; 1.95 nM in data set [2]; 17 nM in the data set on pERK in AGS cells; 70 nM in the data set with pERK in AsPC-1 cells (AsPC-1 cells). Moreover, the IC50 in data set [3] was determined as 1.6 nM.

`COCOc1cc(-c2c(NC(=O)OCc3ccccc3)cc3c(N4C[C@H]5CC[C@@H](C4)N5C(=O)OC(C)(C)C)nc(OCC(F)(F)F)nc3c2F)c2c(CCCCCCO)c(F)ccc2c1`: in data set [4] (amine bond, 12-membered ring, PPh3/DIAD, THF, 32.5 mM, 65.0 °C), the ring closure, isolated yield came to 34%.

The compound `C#CCCCCC(=O)Nc1cc2c(N3C[C@H]4CC[C@@H](C3)N4C(=O)OC(C)(C)C)nc(OCC(F)(F)F)nc2c(F)c1-c1cc(OCOC)cc2ccc(F)c(C#C)c12` registered a ring closure, isolated yield in data set [4] (cc_pd bond, 15-membered ring, PdCl2(PPh3)2/CuI/I2, toluene/iPr2NH 1:1, 1.1 mM, 80.0 °C) of 53%.

For the compound `O=C1CCCCCCCCCc2c(F)ccc3cc(O)cc(c23)-c2c(cc3c(N4CC5CCC(C4)N5)nc(OC[C@@]45CCCN4C[C@H](F)C5)nc3c2F)N1` [Example 11, 16-((1R,5S)-3,8-diazabicyclo[3.2.1]octan-3-yl)-3,20-difluoro-18-(((2R,7aS)-2-fluorotetrahydro-1H-pyrazin-7a(5H)-yl)methoxy)-22-hydroxy-5,6,7,8,9,10,11,12-octahydro-4H-naphtho[1′,8′:4,5,61][1]azacyclohexadecano[2,3-g]quinazolin-13(14H)-one], the IC50 worked out at 909 nM in data set [1], 726 nM in data set [2] and 500 nM in data set [3].

Regarding `C[C@@]1(O)CCCN(c2nc(OCC3(N4CCOCC4)CC3)nc3c(F)c4c(cc23)NCCCCCc2c(F)ccc3cc(O)cc-4c23)C1` (single isomer, unassigned) [Example 33A], the IC50 in the data set with AsPC-1 cells is 1490 nM; with AGS cells (Homo sapiens, AGS, 120 h), 2310 nM; with pERK in AGS cells (Homo sapiens, AGS, 3 h), above 10000 nM; in the data set on pERK in AsPC-1 cells (setting [5]), above 10000 nM.

As for `C=C1CN2CCC[C@@]2(COc2nc(N3CCC[C@@](C)(O)C3)c3cc4c(c(F)c3n2)-c2cc(O)cc3ccc(F)c(c23)CCOCCN4)C1` (single isomer, unassigned) [Example 42B], the IC50 in the data set with AsPC-1 cells was determined as 341 nM; with AGS cells, 61 nM; with pERK in AGS cells, 12 nM; with pERK in AsPC-1 cells (AsPC-1 cells), 74 nM.

As to `CN1CCCCc2c(F)ccc3cc(O)cc(c23)-c2c1cc1c(N3CC4CCC(C3)N4)nc(OC[C@@]34CCCN3C[C@H](F)C4)nc1c2F` [Example 3, 10-((1R,5S)-3,8-Diazabicyclo[3.2.1]octan-3-yl)-3,14-difluoro-12-(((2R,7aS)-2-fluorotetrahydro-1H-pyrazin-7a(5H)-yl)methoxy)-8-methyl-5,6,7,8-tetrahydro-4H-naphtho[1′,8′:4,5,6]acridin[2,3-g]quinazolin-16-ol], the IC50 in the data set with AsPC-1 cells (Homo sapiens, ASPC1, 120 h) came to 393 nM; in the data set on AGS cells (Homo sapiens, AGS, 120 h) it was 329 nM; in the data set on pERK in AGS cells (Homo sapiens, AGS, 3 h), 47 nM; in the data set with pERK in AsPC-1 cells (setting [5]), 104 nM.
